The target of this assay is T1, EHMT2 (Homo sapiens, UniProt Q96KQ7).
T1 construct: host or cells: MDA-MB-231
T1 sequence (Q96KQ7 1-1210): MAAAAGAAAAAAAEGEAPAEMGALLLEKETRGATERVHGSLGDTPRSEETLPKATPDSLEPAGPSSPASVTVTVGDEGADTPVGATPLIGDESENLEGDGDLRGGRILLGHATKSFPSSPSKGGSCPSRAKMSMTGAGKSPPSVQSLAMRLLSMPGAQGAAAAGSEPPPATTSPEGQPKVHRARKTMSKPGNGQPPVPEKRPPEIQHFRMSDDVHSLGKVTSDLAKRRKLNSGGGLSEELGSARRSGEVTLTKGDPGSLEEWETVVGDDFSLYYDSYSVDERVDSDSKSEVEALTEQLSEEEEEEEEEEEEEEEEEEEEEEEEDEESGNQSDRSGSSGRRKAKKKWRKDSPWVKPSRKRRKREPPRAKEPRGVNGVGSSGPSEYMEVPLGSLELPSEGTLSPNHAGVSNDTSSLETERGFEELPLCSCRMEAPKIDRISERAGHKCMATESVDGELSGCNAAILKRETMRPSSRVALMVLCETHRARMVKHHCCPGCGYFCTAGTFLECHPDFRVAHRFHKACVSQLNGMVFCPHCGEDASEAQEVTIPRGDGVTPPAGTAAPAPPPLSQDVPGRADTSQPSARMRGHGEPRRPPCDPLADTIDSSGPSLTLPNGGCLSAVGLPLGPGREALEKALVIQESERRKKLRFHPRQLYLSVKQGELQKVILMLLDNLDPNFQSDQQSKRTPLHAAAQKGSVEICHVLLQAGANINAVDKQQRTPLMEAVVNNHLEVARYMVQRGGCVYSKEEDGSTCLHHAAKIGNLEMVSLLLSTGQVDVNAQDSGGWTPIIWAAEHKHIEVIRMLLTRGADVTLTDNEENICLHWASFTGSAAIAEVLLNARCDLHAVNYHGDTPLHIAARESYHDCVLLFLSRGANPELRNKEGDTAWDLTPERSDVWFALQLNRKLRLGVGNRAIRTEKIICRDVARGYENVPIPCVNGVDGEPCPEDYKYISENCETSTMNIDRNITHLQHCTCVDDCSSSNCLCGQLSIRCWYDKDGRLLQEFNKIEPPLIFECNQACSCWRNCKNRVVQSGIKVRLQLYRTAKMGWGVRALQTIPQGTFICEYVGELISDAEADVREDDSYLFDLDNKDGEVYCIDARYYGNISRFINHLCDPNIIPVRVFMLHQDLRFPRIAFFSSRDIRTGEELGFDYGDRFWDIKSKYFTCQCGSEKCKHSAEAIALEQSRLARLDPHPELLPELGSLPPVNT
Kind of assay: MDA-MB-231 H3K9me2 in-cell Western assay (EHMT2 ICW). The format is cell-based. To be noted: read-out: EHMT2 ICW IC50. An outline of the steps:
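For 48 h at 37 °C, breast cancer MDA-MB-231 cells were incubated with compound, then fixed and immunostained for H3K9me2, with DRAQ5 used for normalisation. Each well's signal ratio yielded percent inhibition, and IC50 values were derived by fitting a four-parameter curve.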

pIC50: −log10 of the molar value. Like-named read-outs stand apart in the source and are kept apart here. Some results are limits rather than exact numbers.

A word on the pIC50: it is the negative decadic logarithm of the IC50, by convention in mol/L.

Consider `CNc1nc(C2CCCCN2C)c2cc(OC)c(OCCCN3CCCC3)cc2n1` (stereo not drawn) [Compound 747], for which the pIC50 (Table VI) is 5.00 to 6.00. `CNC[C@@H](COc1cc(Nc2nccc(NC)n2)ccc1OC)OC` [Compound 1084]: for the setting “Table VII”, the pIC50 is below 5.00. On the same count and under the same terms, as for `CNCCNCc1cc(Nc2nccc(NC)n2)ccc1OC` [Compound 1076], the figure is 5.00 to 6.00. In the case of `COc1cc2c(C)nc(N3CCOCC3)nc2cc1OCCCN1CCCC1` [Compound 762], under “Table VI”, the pIC50 is below 5.00. Consider `CNc1cc(C)nc(Nc2cnc(OC)c(CNCCN3CCCC3)c2)n1` [Compound 1063], for which the pIC50 (Table VII) was 6.00 to 7.00. On the same count and under the same terms, to `CNc1ccnc(Nc2cnc(OC)c(ONCCN3CCCC3)c2)n1` [Compound 1064] belongs 6.00 to 7.00; to `CNc1ccnc(Nc2ccc(OC)c(OCC[C@H]3CCCN3)c2)n1` [Compound 1074], below 5.00. Take `CNc1cc(C)nc(Nc2ccc(OC)c(CNCCN3CC[C@@H](F)C3)c2)n1` [Compound 1094]: for the setting “Table VII”, the pIC50 is 6.00 to 7.00. With `CNc1cc(C)nc(Nc2ccc(OC)c(COCCN3CCCC3)c2)n1` [Compound 1104], where the note is “Table VII”, the pIC50 was 6.00 to 7.00. For the compound `CNc1ccnc(Nc2ccc(OC)c(OC[C@H](CN3CCCC3)OC)c2)n1` [Compound 1082], the pIC50 (Table VII) is below 5.00.

In the case of `CNc1cc(C2CCOCC2)c2cc(OC)c(C#CCN3CCCC3)cc2n1` [Compound 1049], the pIC50 (Table VII) is 6.00 to 7.00.

As to `CNc1ccnc(Nc2ccc(OC)c(OC[C@@H]3CNCCO3)c2)n1` [Compound 1072], under “Table VII”, the pIC50 is below 5.00. The same measure, in the same setting: as for `CNc1ccnc(Nc2ccc(OC)c(OCCC(C)NC)c2)n1` (stereo not drawn) [Compound 1073], the figure is 5.00 to 6.00. Consider `COc1ccc(Nc2nc(C)cc(NC3CCCOC3)n2)cc1OCCCN1CCCC1` (stereo not drawn) [Compound 788], for which, under “Table VI”, the pIC50 is 6.00 to 7.00. On the same count and under the same terms, to `COc1cc2c(C)cc(N3CCOCC3)nc2cc1OCCCN1CCCC1` [Compound 761] belongs 5.00 to 6.00.

The values above are taken from patent US20210198277A1, “AMINE-SUBSTITUTED ARYL OR HETEROARYL COMPOUNDS” (Epizyme, Inc., priority 2016, published 2021).
